# Measured values as given in ChEMBL document CHEMBL3885881, “DrugMatrix”.
# Species on record: Rattus norvegicus
# Assay: DrugMatrix - Regimen: Daily Repeat
# Type: toxicity, organism-based, Sprague-Dawley
# Parameters: regimen Daily Repeat, gender Male, age 6-8 weeks
# Settings: in vivo, po, route oral GAVAGE, vehicle 100 % WATER; for ABSOLUTE BASOPHIL / ABSOLUTE EOSINOPHIL / ABSOLUTE LYMPHOCYTE / ABSOLUTE MONOCYTE / ABSOLUTE SEGMENTED NEUTROPHIL / BASOPHIL / EOSINOPHIL / ERYTHROCYTE COUNT / HEMATOCRIT / HEMOGLOBIN / LEUKOCYTE COUNT / LYMPHOCYTE / MEAN CORPUSCULAR HEMOGLOBIN / MEAN CORPUSCULAR HEMOGLOBIN CONCENTRATION / MEAN CORPUSCULAR VOLUME / MONOCYTE / NEUTROPHIL / NUCLEATED RED BLOOD CELLS / PLATELET COUNT: tissue Blood; for ALANINE AMINOTRANSFERASE / ALBUMIN / ALKALINE PHOSPHATASE / ASPARTATE AMINOTRANSFERASE / BLOOD UREA NITROGEN / CARBON DIOXIDE / CHLORIDE / CHOLESTEROL / CREATINE PHOSPHOKINASE / CREATININE / GLUCOSE / LACTATE DEHYDROGENASE / LIPASE / PHOSPHORUS / POTASSIUM / SODIUM / TOTAL BILIRUBIN / TOTAL PROTEIN / URIC ACID: tissue Plasma
# [1] = 0 mg/kg, 72 h, dose level Control, time 3 day
# [2] = 0 mg/kg, 120 h, dose level Control, time 5 day
# [3] = 100 mg/kg, 72 h, dose level Low, time 3 day
compound,measurement,setting,value
CC(C)(S)[C@@H](N)C(=O)O [PENICILLAMINE],ABSOLUTE BASOPHIL,[1],0 CELLS/uL
same,ABSOLUTE EOSINOPHIL,[1],0 CELLS/uL
same,ABSOLUTE LYMPHOCYTE,[1],7802.17 CELLS/uL
same,ABSOLUTE MONOCYTE,[1],13.5 CELLS/uL
same,ABSOLUTE SEGMENTED NEUTROPHIL,[1],617.67 CELLS/uL
same,BASOPHIL,[1],0%
same,EOSINOPHIL,[1],0%
same,ERYTHROCYTE COUNT,[1],5.35 x10E6/uL
same,HEMATOCRIT,[1],33.02%
same,HEMOGLOBIN,[1],12.88 G/DL
same,LEUKOCYTE COUNT,[1],8.43 x10E3/uL
same,LYMPHOCYTE,[1],92.67%
same,MEAN CORPUSCULAR HEMOGLOBIN,[1],24.12 pg
same,MEAN CORPUSCULAR HEMOGLOBIN CONCENTRATION,[1],39.03 G/DL
same,MEAN CORPUSCULAR VOLUME,[1],61.8 fL
same,MONOCYTE,[1],0.17%
same,NEUTROPHIL,[1],7.17%
same,NUCLEATED RED BLOOD CELLS,[1],0 /100WBC
same,PLATELET COUNT,[1],1124.83 x10E3/uL
same,ALANINE AMINOTRANSFERASE,[1],54.17 u/L
same,ALBUMIN,[1],4.07 G/DL
same,ALKALINE PHOSPHATASE,[1],383.83 u/L
same,ASPARTATE AMINOTRANSFERASE,[1],82.17 u/L
same,BLOOD UREA NITROGEN,[1],13.67 mg/dL
same,CARBON DIOXIDE,[1],31 mmol/L
same,CHLORIDE,[1],100.83 MEQ/L
same,CHOLESTEROL,[1],65.17 mg/dL
same,CREATINE PHOSPHOKINASE,[1],228.33 u/L
same,CREATININE,[1],0.12 mg/dL
same,GLUCOSE,[1],148 mg/dL
same,LACTATE DEHYDROGENASE,[1],97.83 u/L
same,LIPASE,[1],9.17 u/L
same,PHOSPHORUS,[1],9.75 mg/dL
same,POTASSIUM,[1],5.85 MEQ/L
same,SODIUM,[1],147.02 MEQ/L
same,TOTAL BILIRUBIN,[1],0.18 mg/dL
same,TOTAL PROTEIN,[1],6.1 G/DL
same,URIC ACID,[1],0.5 mg/dL
same,ABSOLUTE BASOPHIL,[2],0 CELLS/uL
same,ABSOLUTE EOSINOPHIL,[2],0 CELLS/uL
same,ABSOLUTE LYMPHOCYTE,[2],10538 CELLS/uL
same,ABSOLUTE MONOCYTE,[2],15.83 CELLS/uL
same,ABSOLUTE SEGMENTED NEUTROPHIL,[2],762.83 CELLS/uL
same,BASOPHIL,[2],0%
same,EOSINOPHIL,[2],0%
same,ERYTHROCYTE COUNT,[2],5.49 x10E6/uL
same,HEMATOCRIT,[2],34.63%
same,HEMOGLOBIN,[2],13.72 G/DL
same,LEUKOCYTE COUNT,[2],11.32 x10E3/uL
same,LYMPHOCYTE,[2],92.67%
same,MEAN CORPUSCULAR HEMOGLOBIN,[2],24.97 pg
same,MEAN CORPUSCULAR HEMOGLOBIN CONCENTRATION,[2],39.57 G/DL
same,MEAN CORPUSCULAR VOLUME,[2],63.05 fL
same,MONOCYTE,[2],0.17%
same,NEUTROPHIL,[2],7.17%
same,NUCLEATED RED BLOOD CELLS,[2],0.17 /100WBC
same,PLATELET COUNT,[2],802 x10E3/uL
same,ALANINE AMINOTRANSFERASE,[2],50.5 u/L
same,ALBUMIN,[2],4.07 G/DL
same,ALKALINE PHOSPHATASE,[2],336.83 u/L
same,ASPARTATE AMINOTRANSFERASE,[2],81 u/L
same,BLOOD UREA NITROGEN,[2],14.17 mg/dL
same,CARBON DIOXIDE,[2],32 mmol/L
same,CHLORIDE,[2],98.33 MEQ/L
same,CHOLESTEROL,[2],69.17 mg/dL
same,CREATINE PHOSPHOKINASE,[2],253.33 u/L
same,CREATININE,[2],0.13 mg/dL
same,GLUCOSE,[2],153.67 mg/dL
same,LACTATE DEHYDROGENASE,[2],157 u/L
same,LIPASE,[2],9 u/L
same,PHOSPHORUS,[2],10.78 mg/dL
same,POTASSIUM,[2],6.11 MEQ/L
same,SODIUM,[2],144.57 MEQ/L
same,TOTAL BILIRUBIN,[2],0.15 mg/dL
same,TOTAL PROTEIN,[2],6.05 G/DL
same,URIC ACID,[2],0.73 mg/dL
same,ABSOLUTE BASOPHIL,[3],0 CELLS/uL
same,ABSOLUTE EOSINOPHIL,[3],0 CELLS/uL
same,ABSOLUTE LYMPHOCYTE,[3],8040.67 CELLS/uL
same,ABSOLUTE MONOCYTE,[3],62.33 CELLS/uL
same,ABSOLUTE SEGMENTED NEUTROPHIL,[3],563.67 CELLS/uL
same,BASOPHIL,[3],0%
same,EOSINOPHIL,[3],0%
same,ERYTHROCYTE COUNT,[3],5.32 x10E6/uL
same,HEMATOCRIT,[3],34.33%
same,HEMOGLOBIN,[3],13 G/DL
same,LEUKOCYTE COUNT,[3],8.67 x10E3/uL
same,LYMPHOCYTE,[3],92.67%
same,MEAN CORPUSCULAR HEMOGLOBIN,[3],24.53 pg
same,MEAN CORPUSCULAR HEMOGLOBIN CONCENTRATION,[3],37.9 G/DL
same,MEAN CORPUSCULAR VOLUME,[3],64.67 fL
same,MONOCYTE,[3],0.67%
same,NEUTROPHIL,[3],6.67%
same,NUCLEATED RED BLOOD CELLS,[3],0 /100WBC
same,PLATELET COUNT,[3],991.33 x10E3/uL
same,ALANINE AMINOTRANSFERASE,[3],51 u/L
same,ALBUMIN,[3],4.03 G/DL
same,ALKALINE PHOSPHATASE,[3],403.33 u/L
same,ASPARTATE AMINOTRANSFERASE,[3],82.33 u/L
same,BLOOD UREA NITROGEN,[3],13.67 mg/dL
same,CARBON DIOXIDE,[3],32.33 mmol/L
same,CHLORIDE,[3],100.33 MEQ/L
same,CHOLESTEROL,[3],73.33 mg/dL
same,CREATINE PHOSPHOKINASE,[3],332 u/L
same,CREATININE,[3],0.11 mg/dL
same,GLUCOSE,[3],145.67 mg/dL
same,LACTATE DEHYDROGENASE,[3],165 u/L
same,LIPASE,[3],9 u/L
same,PHOSPHORUS,[3],10 mg/dL
same,POTASSIUM,[3],5.88 MEQ/L
same,SODIUM,[3],145.23 MEQ/L
same,TOTAL BILIRUBIN,[3],0.13 mg/dL
same,TOTAL PROTEIN,[3],5.93 G/DL
same,URIC ACID,[3],0.73 mg/dL
